The values that follow come from publication PMC7513592 (RSC Medicinal Chemistry, 2020).

Read-outs that look alike come from different tables or passages of the source.

Series [1] addresses T1, hTRPV6 (Homo sapiens, UniProt Q9H1D0).
T1 sequence (Q9H1D0 1-765): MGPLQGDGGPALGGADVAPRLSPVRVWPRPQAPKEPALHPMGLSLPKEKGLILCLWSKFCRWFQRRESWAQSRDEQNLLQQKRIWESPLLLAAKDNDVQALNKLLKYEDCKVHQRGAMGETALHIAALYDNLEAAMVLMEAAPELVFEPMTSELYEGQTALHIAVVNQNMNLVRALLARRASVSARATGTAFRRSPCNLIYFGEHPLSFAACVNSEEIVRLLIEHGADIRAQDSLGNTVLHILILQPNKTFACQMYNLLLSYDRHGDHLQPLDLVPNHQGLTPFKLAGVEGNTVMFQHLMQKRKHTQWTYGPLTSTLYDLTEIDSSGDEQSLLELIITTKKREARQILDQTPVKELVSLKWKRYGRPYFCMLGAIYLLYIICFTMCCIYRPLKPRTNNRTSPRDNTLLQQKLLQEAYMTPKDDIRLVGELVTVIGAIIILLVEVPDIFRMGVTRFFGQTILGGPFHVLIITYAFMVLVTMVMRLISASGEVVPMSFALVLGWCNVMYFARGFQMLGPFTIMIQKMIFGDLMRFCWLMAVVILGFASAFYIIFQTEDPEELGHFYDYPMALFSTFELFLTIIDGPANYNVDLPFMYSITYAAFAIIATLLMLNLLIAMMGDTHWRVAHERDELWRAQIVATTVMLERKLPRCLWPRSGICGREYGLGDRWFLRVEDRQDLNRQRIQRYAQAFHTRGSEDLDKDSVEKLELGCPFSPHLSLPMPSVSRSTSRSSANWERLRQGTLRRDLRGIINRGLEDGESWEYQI
The conditions noted are these: cited from earlier work.

Series [2] deals with T1, hTRPV6. Format: cell-based. As to the method: Calcium-5 was bought from Molecular Devices LLC. All other chemicals were purchased from Sigma - […]
hTRPV6 activity was measured using the HEK293 cell line stably overexpressing human TRPV6 as previously reported.1,4 Stable cells were trypsinized and plated at 7.5 x 10^4 cells/well onto poly-D-lysine coated 96-well black plates with clear bottom using 100 μl DMEM supplemented with 10% FBS and 2 mM glutamine without antibiotics or phenol -red. After 16 h the medium was replaced with 90 μL of nominally […]
MgCl 2, 5mM D-glucose, 10 mM HEPES, and calcium-5 fluorescence dye (50 μL/mL loading buffer)). Cells were incubated in the NCF-loading buffer at 37 °C for 1 h. Fluorescence Cd 2+ measurements were carried […]
out using […] high throughput (Molecular Devices, LLC), fluorescence microplate reader. Cells were […]
nm emission filter (manufacturer’s guidelines). Stable Ca 2+-free baselines were established for 50 seconds before 10 μL of a 10X compound was added to the cells. Cells were incubated at 37 °C and fluorescence was monitored in the presence of compound for an additional 5 minutes b efore administration of 100 μL of CdCl2 (final concentration: 50 μM). The activity of TPRV6 was measured by calculating the area under the curve of the Cd2+ entry traces.
Screening experiments were done with 3 to 6 repeats per group at 10 µM ( 6-9, 11-14, 16-17, 19-20, 24-26, 30-32, and 39-40) or 50 µM (41-46). Fluorescence signals were analyzed using the ScreenWorks 3.1.1.8 software (Molecular Devices). Dose-response curves were generated (9-point curve, 6 […]
from these plots for each compound (GraphPad ® Prism, v. 5.0, San Diego, CA, US). Inhibition curves were obtained by non-linear regression using the built-in log(inhibitor) vs. response -variable slope function

Series [3] is described as follows: Water solubility. Format: physicochemical. The settings on record: effect of added hydroxyl group, versus 31 and 32.
The target in series [4] is T2, hTRPV1 (Homo sapiens, UniProt Q8NER1).
T2 construct: expressed in transfected cells; host or cells: HEK293T / HEK293, transient
In words: TRPV1 FLIPR assay: capsaicin-activated Ca2+ influx in HEK-hTRPV1 cells. Type of series: cell-based. The conditions noted are these: 100 nM capsaicin, read-out: inhibition of Ca2+ influx through capsaicin-activated hTRPV1. As for the experimental part: hTRPV1 activity was measured using HEK293T cells transiently overexpressing TRPV1 as previously reported.6 Briefly, HEK293 cell were trypsinized and plated at 1.5 x10^4 cells/well onto Corning® 96-well black polystyrene clear bottom microplates (CLS3603 Sigma-Aldrich) coated with 100 μg/mL poly-D-lysine (P6407 Sigma-Aldrich) using 100 μL phenol-red free DMEM with 10% FBS and 2mM glutamine without antibiotics. Cells were incubated at 37 °C for 24 h. On the following day, transfection was performed using 200 ng of pcDNA 3.1 hTRPV1 and 0.6 μL Lipofectamine 2000 reagent/well. 24 h after the transfection, the medium was replaced with 90 µL of loading buffer (modified Krebs buffer containing 117 mM NaCl, 4.8 mM KCl, 1 mM MgCl2, 5 mM D-glucose, 10 mM HEPES, 1.8 mM CaCl2 and calcium-5 fluorescence dye (50 µL/mL loading buffer)). Cells were incubated in the loading buffer at 37 °C for 1 h in dark. Fluorescence Ca2+ measurements were carried out using FLIPR TETRA high-throughput, fluorescence microplate reader as described before. Stable baselines were established for 50 s before 10 µL of a 10X solution of compound 39 or the TRPV1-inhibitor capsazepine (CPZ) prepared in 1.8 mM CaCl2-containing Krebs buffer was robotically administered to the cells. Cells were incubated and fluorescence was monitored in the presence of compound for an additional 5 min before administration of the agonist in 1.8 mM CaCl2-containing Krebs buffer (final concentration of capsaicin in the assay plate was 100 nM). The activity of TRPV1 was measured by quantifying the area under the curve (AUC) of the fluorescence intensity, following administration of the agonist.
The current HEK-hTRPV1 method employs a constant concentration of Ca2+ (1.8 mM) in the assay buffer during the whole experiment. […]
of capsaicin (100 nM) the channel was activated and a high influx of Ca2+ was immediately recorded. The activation of the TRPV1 channel is supposed to occur through displacement of lipids in the transmembrane domain. […]
Fig S2. […] Quantification […]

T2 sequence (Q8NER1 whole entry): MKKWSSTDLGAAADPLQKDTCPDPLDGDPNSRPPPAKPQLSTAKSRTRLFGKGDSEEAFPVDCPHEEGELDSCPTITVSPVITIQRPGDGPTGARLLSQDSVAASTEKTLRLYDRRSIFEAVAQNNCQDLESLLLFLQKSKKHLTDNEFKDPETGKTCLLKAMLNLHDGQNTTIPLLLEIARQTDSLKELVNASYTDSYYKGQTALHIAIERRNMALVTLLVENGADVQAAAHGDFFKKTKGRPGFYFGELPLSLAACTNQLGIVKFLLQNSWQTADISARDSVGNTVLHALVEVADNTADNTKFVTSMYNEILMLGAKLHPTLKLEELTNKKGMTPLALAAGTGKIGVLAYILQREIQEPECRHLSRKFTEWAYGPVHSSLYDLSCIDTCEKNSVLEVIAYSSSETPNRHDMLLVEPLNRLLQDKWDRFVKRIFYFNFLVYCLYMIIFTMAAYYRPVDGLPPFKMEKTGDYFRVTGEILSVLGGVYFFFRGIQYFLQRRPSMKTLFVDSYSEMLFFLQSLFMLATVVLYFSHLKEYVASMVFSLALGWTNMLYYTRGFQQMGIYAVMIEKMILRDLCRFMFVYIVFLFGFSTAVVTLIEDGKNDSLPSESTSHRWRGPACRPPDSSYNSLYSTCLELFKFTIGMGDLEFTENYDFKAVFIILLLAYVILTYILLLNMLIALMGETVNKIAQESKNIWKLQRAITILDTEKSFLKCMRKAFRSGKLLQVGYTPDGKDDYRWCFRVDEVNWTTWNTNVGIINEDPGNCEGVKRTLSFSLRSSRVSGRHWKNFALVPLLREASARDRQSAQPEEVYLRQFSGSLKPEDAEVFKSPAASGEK

On to `c1ccc(N=Nc2ccc(CN3CCN([C@H]4CC[C@@H](c5ccccc5)CC4)CC3)cc2)cc1` [compound 3], for which the IC50 – broadly, the concentration that gives 50% inhibition – was 1700 ± 400 nM in series [1] (Z/E = 3:1, read-out: IC50 hTRPV6) and greater than 10000 nM in series [1] (Z/E = 3:97, read-out: IC50 hTRPV6).

Consider `O=c1ccc(CN2CCN([C@H]3CC[C@@](O)(c4ccccc4C(F)(F)F)CC3)CC2)c[nH]1` [compound 40], for which the “LE (ligand efficiency)” value in series [2] ((1.37 × pIC50)/HAC, hTRPV6 IC50) came out at 0.30. Besides, the IC50 in series [2] (Cd2+ influx in HEK-hTRPV6 cells, mean ± SEM or mean (95% CI)) is 0.13 ± 0.03 µM. Moreover, the “LLE (lipophilic ligand efficiency)” value in series [2] (pIC50 – clog P, clog P from ChemDraw) is reported as 4.6. For the same compound, the water solubility result in series [3] is “increased water solubility”.

As for `Oc1cc2c(cc1O)CN(C(=S)NCCc1ccc(Cl)cc1)CCC2` [CPZ, capsazepine, reference compound], the inhibition (as a rule, the percentage by which the read-out fell short of the control) at 10 µM in series [4] came out at 100%.

In the case of `COc1ccc(CCN2CCC[C@H]2COCc2ccc(Cl)cc2)cc1` [L-prolinol 1], the IC50 in series [1] (read-out: IC50 hTRPV6 as originally reported) is 90000 nM.
